The test deals with PARP. Nature of the test: PARP cleavage (p84) by Western blot, densitometry. Type of test: cell-based, human. Particulars: LNCaP, 40 μM α-TEA 15 h. The procedure:
Whole-cell protein extracts were prepared as described previously (Yu et al., 1999), and 50 μg of protein was loaded per lane, separated using SDS-PAGE on a 10-15% gel under reducing conditions, and electroblotted onto a nitrocellulose membrane ([…] Optitran BA-S-supported nitrocellulose; Schleicher and Schuell, Keene, N.H.). Equal loading was verified using GAPDH antibody. Primary rabbit antibodies with specificity for PARP and primary goat antibody with specificity for Arg were purchased from Santa Cruz Biotechnology (Santa Cruz, Calif.). Horseradish peroxidase conjugated goat anti-rabbit or horseradish goat anti-mouse secondary antibody was purchased from Jackson Immunoresearch Laboratory (West Grove, Pa.). Horseradish peroxidase-conjugated donkey anti-goat serum was purchased from Santa Cruz Biotechnology. Immune complexes were visualized using enhanced chemiluminescence detection (Pierce Chemical Co., Rockford, Ill.). Fold differences in level of chemiluminescence were determined by densitometric analyses.
Primary mouse antibody specific for p73 was purchased from IMGENEX (San Diego, Calif.). Primary mouse antibody specific for caspase 8 was purchased from Cell Signaling Technology (Beverly, Mass.). Horseradish peroxidase conjugated goat anti-rabbit or goat anti-mouse secondary antibodies were purchased from Jackson Immunoresearch Laboratory (West Grove, Pa.). Horseradish peroxidase-conjugated donkey […] serum was purchased from Santa Cruz Biotechnology. Immune complexes were visualized using enhanced chemiluminescence detection (Pierce Chemical Co., Rockford, Ill.). Fold differences in level of chemiluminescence were determined by densitometric analyses.
A general note: In western blotting, separated proteins are transferred to a membrane and probed.

`Cc1c(C)c2c(c(C)c1OCC(=O)O)CC[C@@](C)(CCC[C@H](C)CCC[C@H](C)CCCC(C)C)O2` [α-TEA]: the “PARP cleavage in comparison to empty vector control, cells overexpressing Flag-tagged wild type FOXO1” value is listed as 160% and the “PARP cleavage in comparison to empty vector control, cells overexpressing constitutively active Flag-FOXO1 AAA” value stood at 230%.

Values taken from patent publication US20100292316A1, “IMPROVED THERAPEUTIC METHODS AND COMPOSITIONS COMPRISING CHROMAN RING COMPOUNDS” (Research Development Foundation, priority 2007, published 2010).
